Results reported in patent US12692238B2, “Substituted pyridazinone herbicides” (FMC CORPORATION, priority 2020, dated 2026).

Columns and labels:
Assay type in all cases: in vivo
[1] = tested on: ragweed (common ragweed, Ambrosia artemisiifolia); experiment: Test A preemergence, ragweed; conditions: Ambrosia artemisiifolia, pre-emergence, 240 h, 0 to 100 scale, 10 days, read-out: Plant response rating, Ragweed
Summary of the method: (§1)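 Test chemicals, formulated in a non-phytotoxic solvent mixture with surfactant, are applied either as a directed preemergence soil spray or postemergence to seedlings at the one- to two-leaf stage. Injury is scored visually after 10 days, 0 = no effect to 100 = complete control.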

[2] = tested on: ryegrass, Italian (Italian ryegrass, Lolium multiflorum); experiment: Test A preemergence, ryegrass, Italian; conditions: Lolium multiflorum, pre-emergence, 240 h, 0 to 100 scale, 10 days, read-out: Plant response rating, Ryegrass, Italian
Summary of the method: as §1

[3] = tested on: foxtail, giant (giant foxtail, Setaria faberi); experiment: Test A preemergence, foxtail, giant; conditions: Setaria faberi, pre-emergence, 240 h, 0 to 100 scale, 10 days, read-out: Plant response rating, Foxtail, Giant
Summary of the method: as §1

kochia (Bassia scoparia) [4] = experiment: Test A postemergence, kochia; conditions: Bassia scoparia, post-emergence, 240 h, 10 days, read-out: Plant response rating, Kochia
Summary of the method: as §1

[5] = tested on: blackgrass (Alopecurus myosuroides); experiment: Test A postemergence, blackgrass; conditions: Alopecurus myosuroides, post-emergence, 240 h, 10 days, read-out: Plant response rating, Blackgrass
Summary of the method: as §1

[6] = tested on: barnyardgrass (Echinochloa crus-galli); experiment: Test A postemergence, barnyardgrass; conditions: 10 days
Summary of the method: as §1

[7] = tested on: ducksalad (Heteranthera limosa); experiment: Test B flooded paddy test, ducksalad; conditions: Heteranthera limosa; 250 g ai/ha, Flood; visually evaluated after 10 to 14 days; read-out: Plant response rating, Ducksalad (0 to 100 scale where 0 is no effect and 100 is complete control)
Summary of the method: (§2)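 Application into floodwater (3 cm over soil) at the 2-leaf stage, with the depth held constant, followed by greenhouse growth for 10–14 days. Percent control was estimated visually versus controls, where 100 is complete control.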

[8] = tested on: foxtail, giant (giant foxtail, Setaria faberi); experiment: Test A postemergence, foxtail, giant; conditions: Setaria faberi, post-emergence, 240 h, 10 days, read-out: Plant response rating, Foxtail, Giant
Summary of the method: as §1

[9] = tested on: redroot pigweed (Amaranthus retroflexus); experiment: Test A preemergence, redroot pigweed; conditions: 0 to 100 scale, 10 days
Summary of the method: as §1

kochia (Bassia scoparia) [10] = experiment: Test A preemergence, kochia; conditions: Bassia scoparia, pre-emergence, 240 h, 0 to 100 scale, 10 days, read-out: Plant response rating, Kochia
Summary of the method: as §1

[11] = tested on: redroot pigweed (Amaranthus retroflexus); experiment: Test A postemergence, redroot pigweed; conditions: 10 days
Summary of the method: as §1

[12] = tested on: wheat (Triticum aestivum); experiment: Test A postemergence, wheat; conditions: Triticum aestivum, post-emergence, 240 h, 10 days, read-out: Plant response rating, Wheat
Summary of the method: as §1

[13] = tested on: sedge, umbrella (small-flower umbrella sedge, Cyperus difformis); experiment: Test B flooded paddy test, sedge, umbrella; conditions: Cyperus difformis; 250 g ai/ha, Flood; visually evaluated after 10 to 14 days; read-out: Plant response rating, Sedge, Umbrella (0 to 100 scale where 0 is no effect and 100 is complete control)
Summary of the method: as §2

[14] = tested on: ragweed (common ragweed, Ambrosia artemisiifolia); experiment: Test A postemergence, ragweed; conditions: Ambrosia artemisiifolia, post-emergence, 240 h, 10 days, read-out: Plant response rating, Ragweed
Summary of the method: as §1

rice (Oryza sativa) = experiment: Test B flooded paddy test, rice; conditions: Oryza sativa; 250 g ai/ha, Flood; visually evaluated after 10 to 14 days; read-out: Plant response rating, Rice (0 to 100 scale where 0 is no effect and 100 is complete control)
Summary of the method: as §2

[15] = tested on: ryegrass, Italian (Italian ryegrass, Lolium multiflorum); experiment: Test A postemergence, ryegrass, Italian; conditions: Lolium multiflorum, post-emergence, 240 h, 10 days, read-out: Plant response rating, Ryegrass, Italian
Summary of the method: as §1

[16] = 31 g ai/ha, postemergence, 0 to 100 scale (0 no effect, 100 complete control)
[17] = Postemergence, 125 g ai/ha, 0 to 100 scale

Q: With `CC(=O)OCOc1c(C)nn(C)c(=O)c1-c1c2cc(C)ccc2cc2ccc(F)cc12` [Compound 24, 5-[(acetyloxy)methoxy]-4-(2-fluoro-7-methyl-9-anthracenyl)-2,6-dimethyl-3(2H)-pyridazinone] as the compound, how does the pest or weed control at 31 g/ha ([1]; 31 g ai/ha) read?
A: The pest or weed control at 31 g/ha was 90%.

Q: And the pest or weed control at 125 g/ha ([1]; 125 g ai/ha)?
A: Its pest or weed control at 125 g/ha is 90%.

Q: What about the pest or weed control at 31 g/ha ([2]; 31 g ai/ha) of the same compound?
A: The pest or weed control at 31 g/ha was 50%.

Q: And the pest or weed control at 125 g/ha ([2]; 125 g ai/ha)?
A: Its pest or weed control at 125 g/ha is 80%.

Q: And the pest or weed control at 31 g/ha ([3]; 31 g ai/ha)?
A: The pest or weed control at 31 g/ha was 90%.

Q: What about the pest or weed control at 125 g/ha ([3]; 125 g ai/ha) of the same compound?
A: Its pest or weed control at 125 g/ha is 100%.

Q: What about the pest or weed control at 31 g/ha (kochia (Bassia scoparia) [4]; [16]) of the same compound?
A: The pest or weed control at 31 g/ha was 90%.

Q: What about the pest or weed control at 125 g/ha (kochia (Bassia scoparia) [4]; [17]) of the same compound?
A: The pest or weed control at 125 g/ha was 100%.

Q: What about the pest or weed control at 31 g/ha [5, 16] of the same compound?
A: The pest or weed control at 31 g/ha was 0%.

Q: And the pest or weed control at 125 g/ha [5, 17]?
A: The pest or weed control at 125 g/ha was 20%.

Q: What about the “Plant response rating, Barnyardgrass” value [6, 16] of the same compound?
A: The value was 80.

Q: And the “Plant response rating, Barnyardgrass” value [6, 17]?
A: The value was 90.

Q: And the pest or weed control at 250 g/ha [7]?
A: The pest or weed control at 250 g/ha was 75%.

Q: What about the pest or weed control at 31 g/ha [8, 16] of the same compound?
A: The pest or weed control at 31 g/ha was 90%.

Q: And the pest or weed control at 125 g/ha [8, 17]?
A: The pest or weed control at 125 g/ha was 90%.

Q: What about the “Plant response rating, Pigweed, Redroot” value ([9]; 31 g ai/ha) of the same compound?
A: The value was 100.

Q: What about the “Plant response rating, Pigweed, Redroot” value ([9]; 125 g ai/ha) of the same compound?
A: The value was 100.

Q: And the pest or weed control at 31 g/ha (kochia (Bassia scoparia) [10]; 31 g ai/ha)?
A: The pest or weed control at 31 g/ha was 70%.

Q: And the pest or weed control at 125 g/ha (kochia (Bassia scoparia) [10]; 125 g ai/ha)?
A: The pest or weed control at 125 g/ha was 90%.

Q: What about the “Plant response rating, Pigweed, Redroot” value [11, 16] of the same compound?
A: Its value is 100.

Q: What about the “Plant response rating, Pigweed, Redroot” value [11, 17] of the same compound?
A: The value was 100.

Q: What about the plant injury at 31 g/ha [12, 16] of the same compound?
A: Its plant injury at 31 g/ha is 0%.

Q: What about the plant injury at 125 g/ha [12, 17] of the same compound?
A: Its plant injury at 125 g/ha is 0%.

Q: What about the pest or weed control at 250 g/ha [13] of the same compound?
A: Its pest or weed control at 250 g/ha is 80%.

Q: And the pest or weed control at 31 g/ha [14, 16]?
A: Its pest or weed control at 31 g/ha is 80%.

Q: What about the pest or weed control at 125 g/ha [14, 17] of the same compound?
A: The pest or weed control at 125 g/ha was 100%.

Q: What about the plant injury at 250 g/ha (rice (Oryza sativa)) of the same compound?
A: Its plant injury at 250 g/ha is 50%.

Q: And the pest or weed control at 31 g/ha [15, 16]?
A: Its pest or weed control at 31 g/ha is 90%.

Q: What about the pest or weed control at 125 g/ha [15, 17] of the same compound?
A: Its pest or weed control at 125 g/ha is 90%.
